Experimental data: patent US20070128217A1 (priority 2003, published 2007)

Legend:
[1] = test system: antibodies in sera from SARS patients (sera 1a, 1b, 2, 6, 37, 62, London, SARS-yellow, SARS-green); format: binding, human; set-up: Binding of serum 6 to linear peptides of protein X1 of SARS-CoV Urbani / Binding of serum 37 to linear peptides of protein X1 of SARS-CoV Urbani / Binding of serum 6 to looped/cyclic peptide (PEPSCAN-ELISA) / Binding of serum 37 to looped/cyclic peptide (PEPSCAN-ELISA) / Binding of serum 37 to looped/cyclic peptides of protein X1 of SARS-CoV Urbani / Binding of serum 6 to linear peptides of protein X2 / Binding of serum 37 to linear peptides of protein X2 / Binding of serum 37 to looped/cyclic peptides of protein X2 of SARS-CoV Urbani / Binding of serum 6 to linear peptides of protein M of SARS-CoV Urbani / Binding of serum 37 to linear peptides of protein M of SARS-CoV Urbani / Binding of serum 6 to looped/cyclic peptides of protein M of SARS-CoV Urbani / Binding of serum 37 to looped/cyclic peptides of protein M of SARS-CoV Urbani / Binding of serum 6 to linear peptides of protein X3 of SARS-CoV Urbani / Binding of serum 37 to linear peptides of protein X3 of SARS-CoV Urbani / Binding of serum 37 to looped/cyclic peptides of protein X3 of SARS-CoV Urbani / Binding of serum 6 to linear peptides of protein X4 of SARS-CoV Urbani / Binding of serum 37 to linear peptides of protein X4 of SARS-CoV Urbani / Binding of serum 37 to looped/cyclic peptides of protein X4 of SARS-CoV Urbani / Binding of serum 6 to linear peptides of protein X5 of SARS-CoV Urbani / Binding of serum 37 to linear peptides of protein X5 of SARS-CoV Urbani / Binding of serum 37 to looped/cyclic peptides of protein X5 of SARS-CoV Urbani / Binding of serum 6 to linear peptides of protein N of SARS-CoV Urbani / Binding of serum 37 to linear peptides of protein N of SARS-CoV Urbani / Binding of serum 6 to linear peptide (PEPSCAN-ELISA) / Binding of serum 1a to looped/cyclic peptides of protein N of SARS-CoV Urbani / Binding of serum 1b to looped/cyclic peptides of protein N of SARS-CoV Urbani / Binding of serum 2 to looped/cyclic peptides of protein N of SARS-CoV Urbani / Binding of serum 6 to looped/cyclic peptides of protein N of SARS-CoV Urbani / Binding of serum 37 to looped/cyclic peptides of protein N of SARS-CoV Urbani / Binding of serum 62 to looped/cyclic peptides of protein N of SARS-CoV Urbani / Binding of serum London to looped/cyclic peptides of protein N of SARS-CoV Urbani / Binding of serum SARS-green to looped/cyclic peptides of protein N of SARS-CoV Urbani: unit not given here
[2] = test system: control sera (pooled serum of ten healthy LUMC hospital workers; commercial negative donor pooled serum from the Dutch bloodbank); format: binding, human; set-up: Binding of Control serum LUMC to linear peptides / Binding of Control serum Blood-bank to linear peptides / Binding of Control serum LUMC to looped peptides / Binding of Control Serum Blood-Bank to Looped peptides / Binding of Control serum LUMC to linear peptides of the protein M of SARS-CoV Urbani / Binding of Control serum Blood-bank to linear peptides of the protein M of SARS-CoV Urbani / Binding of Control serum LUMC to looped peptides of the protein M of SARS-CoV Urbani / Binding of Control Serum Blood-Bank to Looped peptides of the protein M of SARS-CoV Urbani: unit not given here
[3] = test system: rabbit serum obtained by immunizing a rabbit with the SARS-CoV strain Frankfurt 1; format: binding; set-up: Binding of a rabbit serum to linear peptides / Binding of a rabbit serum to looped peptides / Rabbit serum linear peptides / Rabbit serum looped peptides / Binding of a rabbit serum to linear peptides of protein N of SARS-CoV Urbani (Rabbit serum linear peptides) / Binding of a rabbit serum to looped/cyclic peptides of protein N of SARS-CoV Urbani (Rabbit serum looped peptides): unit not given here

Sequence: GFLFLAWIMLLQFAY
- Binding of serum 1a to linear peptides of protein M of SARS-CoV Urbani [1]: 0.7
- Binding of serum 1a to looped/cyclic peptides of protein M of SARS-CoV Urbani [1]: 0.6
- Binding of serum 1b to linear peptides of protein M of SARS-CoV Urbani [1]: 0.5
- Binding of serum 1b to looped/cyclic peptides of protein M of SARS-CoV Urbani [1]: 0.6
- Binding of serum 2 to linear peptides of protein M of SARS-CoV Urbani [1]: 0.5
- Binding of serum 2 to looped/cyclic peptides of protein M of SARS-CoV Urbani [1]: 0.5
- Binding of serum 6 to linear peptides of protein M of SARS-CoV Urbani [1]: 0.3
- Binding of serum 6 to looped/cyclic peptides of protein M of SARS-CoV Urbani [1]: 0.6
- Binding of serum 37 to linear peptides of protein M of SARS-CoV Urbani [1]: 0.7
- Binding of serum 37 to looped/cyclic peptides of protein M of SARS-CoV Urbani [1]: 0.6
- Binding of serum 62 to linear peptides of protein M of SARS-CoV Urbani [1]: 0.7
- Binding of serum 62 to looped/cyclic peptides of protein M of SARS-CoV Urbani [1]: 0.6
- Binding of serum London to linear peptides of protein M of SARS-CoV Urbani [1]: 0.3
- Binding of serum London to looped/cyclic peptides of protein M of SARS-CoV Urbani [1]: 0.2
- Binding of serum SARS-green to linear peptides of protein M of SARS-CoV Urbani [1]: 0.2
- Binding of serum SARS-green to looped/cyclic peptides of protein M of SARS-CoV Urbani [1]: 0.3
- Binding of serum SARS-yellow to linear peptides of protein M of SARS-CoV Urbani [1]: 0.0
- Binding of serum SARS-yellow to looped/cyclic peptides of protein M of SARS-CoV Urbani [1]: 0.4
- Binding of Control Serum Blood-Bank to Looped peptides of the protein M of SARS-CoV Urbani [2]: 0.6
- Binding of Control serum Blood-bank to linear peptides of the protein M of SARS-CoV Urbani [2]: 0.7
- Binding of Control serum LUMC to linear peptides of the protein M of SARS-CoV Urbani [2]: 0.3
- Binding of Control serum LUMC to looped peptides of the protein M of SARS-CoV Urbani [2]: 0.7
- Rabbit serum linear peptides [3]: 0.3
- Rabbit serum looped peptides [3]: 0.4

Sequence: LTSLLKTHRMCKYTQ
- Binding of serum 1a to linear peptides of protein X2 [1]: 0.7
- Binding of serum 1a to looped/cyclic peptides of protein X2 of SARS-CoV Urbani [1]: 0.4
- Binding of serum 1b to linear peptides of protein X2 [1]: 0.3
- Binding of serum 1b to looped/cyclic peptides of protein X2 of SARS-CoV Urbani [1]: 0.3
- Binding of serum 2 to linear peptides of protein X2 [1]: 0.5
- Binding of serum 2 to looped/cyclic peptides of protein X2 of SARS-CoV Urbani [1]: 0.2
- Binding of serum 6 to linear peptides of protein X2 [1]: 0.5
- Binding of serum 6 to looped/cyclic peptides of protein X2 of SARS-CoV Urbani [1]: 0.2
- Binding of serum 37 to linear peptides of protein X2 [1]: 0.6
- Binding of serum 37 to looped/cyclic peptides of protein X2 of SARS-CoV Urbani [1]: 0.3
- Binding of serum 62 to linear peptides of protein X2 [1]: 0.6
- Binding of serum 62 to looped/cyclic peptides of protein X2 of SARS-CoV Urbani [1]: 0.4
- Binding of serum London to linear peptides of protein X2 [1]: 0.5
- Binding of serum London to looped/cyclic peptides of protein X2 of SARS-CoV Urbani [1]: 0.2
- Binding of serum SARS-green to linear peptides of protein X2 [1]: 0.2
- Binding of serum SARS-green to looped/cyclic peptides of protein X2 of SARS-CoV Urbani [1]: 0.2
- Binding of serum SARS-yellow to linear peptides of protein X2 [1]: 0.4
- Binding of serum SARS-yellow to looped/cyclic peptides of protein X2 of SARS-CoV Urbani [1]: 0.3
- Binding of Control Serum Blood-Bank to Looped peptides [2]: 0.4
- Binding of Control serum Blood-bank to linear peptides [2]: 0.5
- Binding of Control serum LUMC to linear peptides [2]: 0.4
- Binding of Control serum LUMC to looped peptides [2]: 0.5
- Binding of a rabbit serum to linear peptides [3]: 0.3
- Binding of a rabbit serum to looped peptides [3]: 0.4
